Data published in ChEMBL document CHEMBL6127056, “Novel mechanistic insights - A brand new Era for anti-HBV drugs” (Eur J Med Chem, 2024).
Residues, ends and D or L forms follow the SMILES beside them.

Assays:
[1] = test system: Hepatitis B virus; test: Antiviral activity against HBV infected in human HepAD38 cells assessed as inhibition of viral replication; assay type: functional, organism-based
[2] = test system: Hepatitis B virus; test: Antiviral activity against HBV infected in human HepDES19 cells assessed as inhibition of extracellular HBV DNA by qPCR analysis; assay type: functional, organism-based
[3] = biological target: Lysine-specific demethylase 5B (Homo sapiens, UniProt Q9UGL1); test: Inhibition of KDM5B (unknown origin)
Lysine-specific demethylase 5B, sequence (Q9UGL1 whole entry): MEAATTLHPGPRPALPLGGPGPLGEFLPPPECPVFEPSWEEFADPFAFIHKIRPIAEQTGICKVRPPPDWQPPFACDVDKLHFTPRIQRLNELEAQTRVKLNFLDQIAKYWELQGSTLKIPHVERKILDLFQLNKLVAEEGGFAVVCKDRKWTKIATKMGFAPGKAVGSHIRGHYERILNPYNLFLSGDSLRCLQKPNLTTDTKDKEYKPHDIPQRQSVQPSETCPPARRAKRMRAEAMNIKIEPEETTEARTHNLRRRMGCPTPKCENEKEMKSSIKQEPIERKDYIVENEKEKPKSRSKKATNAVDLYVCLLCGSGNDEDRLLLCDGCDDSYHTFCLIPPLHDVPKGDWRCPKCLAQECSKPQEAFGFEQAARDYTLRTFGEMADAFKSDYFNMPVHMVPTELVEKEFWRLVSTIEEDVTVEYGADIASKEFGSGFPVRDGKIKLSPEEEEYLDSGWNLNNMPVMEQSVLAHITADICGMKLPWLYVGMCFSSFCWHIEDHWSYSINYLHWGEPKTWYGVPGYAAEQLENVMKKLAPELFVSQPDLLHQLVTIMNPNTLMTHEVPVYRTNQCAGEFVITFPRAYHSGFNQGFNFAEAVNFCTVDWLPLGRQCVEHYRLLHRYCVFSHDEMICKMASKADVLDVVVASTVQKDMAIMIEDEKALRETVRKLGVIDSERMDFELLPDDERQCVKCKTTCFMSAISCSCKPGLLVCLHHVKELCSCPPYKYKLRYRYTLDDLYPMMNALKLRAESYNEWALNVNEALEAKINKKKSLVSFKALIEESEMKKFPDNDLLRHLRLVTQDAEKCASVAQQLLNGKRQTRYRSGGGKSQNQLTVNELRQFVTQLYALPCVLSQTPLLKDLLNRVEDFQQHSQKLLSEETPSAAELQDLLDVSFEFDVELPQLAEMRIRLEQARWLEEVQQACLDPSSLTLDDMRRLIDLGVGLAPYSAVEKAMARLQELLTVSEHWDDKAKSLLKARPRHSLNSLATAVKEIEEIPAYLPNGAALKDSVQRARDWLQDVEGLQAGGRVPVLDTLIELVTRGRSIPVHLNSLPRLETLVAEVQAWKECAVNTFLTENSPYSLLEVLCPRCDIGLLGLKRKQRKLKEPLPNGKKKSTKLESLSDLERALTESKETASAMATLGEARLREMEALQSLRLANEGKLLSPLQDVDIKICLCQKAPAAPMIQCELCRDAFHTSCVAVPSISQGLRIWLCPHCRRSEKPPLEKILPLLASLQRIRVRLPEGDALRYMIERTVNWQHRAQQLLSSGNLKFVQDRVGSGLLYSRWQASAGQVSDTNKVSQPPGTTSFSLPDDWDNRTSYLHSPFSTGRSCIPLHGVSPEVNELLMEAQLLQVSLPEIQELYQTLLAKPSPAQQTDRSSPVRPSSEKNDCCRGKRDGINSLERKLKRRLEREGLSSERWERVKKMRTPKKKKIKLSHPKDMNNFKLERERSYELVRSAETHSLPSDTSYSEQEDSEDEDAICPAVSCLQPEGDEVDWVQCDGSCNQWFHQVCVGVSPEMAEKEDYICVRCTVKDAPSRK

[4] = biological target: SRSF protein kinase 1 (Homo sapiens, UniProt Q96SB4); test: Inhibition of SRPK-1 (unknown origin)
SRSF protein kinase 1, sequence (Q96SB4 whole entry): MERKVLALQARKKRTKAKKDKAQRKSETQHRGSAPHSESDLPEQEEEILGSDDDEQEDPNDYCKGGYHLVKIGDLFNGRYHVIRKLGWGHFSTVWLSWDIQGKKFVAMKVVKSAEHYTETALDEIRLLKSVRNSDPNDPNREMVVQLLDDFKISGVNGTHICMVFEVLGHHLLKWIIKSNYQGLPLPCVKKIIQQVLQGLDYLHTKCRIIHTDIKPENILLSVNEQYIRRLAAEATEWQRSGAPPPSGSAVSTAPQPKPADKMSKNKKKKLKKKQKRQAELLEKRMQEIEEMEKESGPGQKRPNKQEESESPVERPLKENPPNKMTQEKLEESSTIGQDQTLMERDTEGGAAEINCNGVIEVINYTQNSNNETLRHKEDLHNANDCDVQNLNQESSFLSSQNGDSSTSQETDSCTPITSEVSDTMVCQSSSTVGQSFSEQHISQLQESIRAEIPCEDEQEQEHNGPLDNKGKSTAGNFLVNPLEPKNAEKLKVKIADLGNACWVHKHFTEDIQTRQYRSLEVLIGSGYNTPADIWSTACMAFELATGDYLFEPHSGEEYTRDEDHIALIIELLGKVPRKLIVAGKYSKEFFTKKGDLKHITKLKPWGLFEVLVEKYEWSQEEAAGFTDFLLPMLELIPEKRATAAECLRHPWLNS

[5] = Inhibition of HBV RNA polymerase; parameters: species or system Hepatitis B virus
[6] = test system: Hepatitis B virus; test: Antiviral activity against HBV infected in human Primary hepatocyte assessed as reduction in HBV replication; assay type: functional, organism-based
[7] = test system: Hepatitis B virus; test: Antiviral activity against HBV infected in human HepG2.2.15 cells assessed as reduction in viral DNA levels incubated for 6 days by PCR analysis; assay type: functional, organism-based; details: HepG2.2.15, 144 h
[8] = test system: Hepatitis B virus; test: Antiviral activity against Hepatitis B virus ayw1 infected in human HepG2 2.2.15 cells assessed as reduction in viral DNA replication incubated for 6 days by qPCR analysis; assay type: functional, organism-based; details: ayw1, HepG2 2.2.15, 144 h
[9] = biological target: T1, NAD-dependent protein deacetylase sirtuin-2 (Homo sapiens, UniProt Q8IXJ6); test: Inhibition of SIRT2 (unknown origin)
T1 sequence (Q8IXJ6 whole entry): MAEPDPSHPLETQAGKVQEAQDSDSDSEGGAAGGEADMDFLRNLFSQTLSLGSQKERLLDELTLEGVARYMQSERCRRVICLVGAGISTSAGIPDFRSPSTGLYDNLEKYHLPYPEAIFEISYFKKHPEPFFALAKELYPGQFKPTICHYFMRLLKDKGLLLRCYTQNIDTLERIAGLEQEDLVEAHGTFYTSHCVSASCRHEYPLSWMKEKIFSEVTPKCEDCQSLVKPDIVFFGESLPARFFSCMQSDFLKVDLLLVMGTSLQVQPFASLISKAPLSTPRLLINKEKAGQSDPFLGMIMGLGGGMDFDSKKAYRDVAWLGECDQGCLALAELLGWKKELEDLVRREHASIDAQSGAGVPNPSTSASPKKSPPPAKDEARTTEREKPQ

[10] = test system: HepG2 2.2.15; test: Cytotoxicity against human HepG2.2.15 cells assessed as reduction in cell viability by CellTiter-Blue reagent based analysis; assay type: functional
[11] = test system: Hepatitis B virus; test: Antiviral activity against Hepatitis B virus assessed as inhibition of HBV DNA replication; assay type: functional, organism-based
[12] = biological target: Triosephosphate isomerase (Homo sapiens, UniProt P60174); test: Inhibition of TPI1 (unknown origin)
Triosephosphate isomerase, sequence (P60174 whole entry): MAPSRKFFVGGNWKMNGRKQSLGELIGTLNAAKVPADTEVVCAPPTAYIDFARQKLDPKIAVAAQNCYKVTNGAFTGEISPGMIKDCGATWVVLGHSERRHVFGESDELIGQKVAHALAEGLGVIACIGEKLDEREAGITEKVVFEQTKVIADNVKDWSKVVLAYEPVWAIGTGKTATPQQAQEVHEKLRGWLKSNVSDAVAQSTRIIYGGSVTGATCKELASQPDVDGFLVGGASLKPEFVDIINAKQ

[13] = test system: Hepatitis B virus; test: Antiviral activity against HBV infected in human HepG2.117 cells assessed as reduction in intracellular DNA level by RT-qPCR analysis; assay type: functional, organism-based
[14] = test system: Hepatitis B virus; test: Antiviral activity against HBV infected in human HepG2.2.15 cells; assay type: functional, organism-based
[15] = biological target: Human immunodeficiency virus type 1 reverse transcriptase (Human immunodeficiency virus 1, UniProt Q72547); test: Inhibition of HIV-1 reverse transcriptase
[16] = test system: Hepatitis B virus; test: Antiviral activity against HBV infected in human HePAD38 cells assessed as reduction in viral replication by qPCR analysis; assay type: functional, organism-based
[17] = test system: Hepatitis B virus; test: Antiviral activity against HBV infected in human HepG2-NTCP12 cells assessed as inhibition of viral replication; assay type: functional, organism-based
[18] = test system: Hepatitis B virus; test: Antiviral activity against HBV infected in human Primary hepatocytes assessed as reduction in HBV DNA level measured after 16 days by ELISA; details: Hepatocyte, 384 h
[19] = biological target: T2, Hepatic sodium/bile acid cotransporter (Homo sapiens, UniProt Q14973); test: Inhibition of NTCP (unknown origin)
T2 sequence (Q14973 whole entry): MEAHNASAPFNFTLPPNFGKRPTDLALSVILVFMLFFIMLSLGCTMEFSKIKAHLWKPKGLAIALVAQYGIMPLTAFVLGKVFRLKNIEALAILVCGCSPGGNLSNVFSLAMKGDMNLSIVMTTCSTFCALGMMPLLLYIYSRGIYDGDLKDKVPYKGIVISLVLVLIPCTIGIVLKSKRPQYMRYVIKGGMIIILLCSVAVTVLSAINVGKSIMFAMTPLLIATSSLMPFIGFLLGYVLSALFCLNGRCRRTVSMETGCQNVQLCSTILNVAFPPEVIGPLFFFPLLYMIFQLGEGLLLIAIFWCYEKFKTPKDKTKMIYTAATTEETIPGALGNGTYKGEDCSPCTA

[20] = biological target: T2, Hepatic sodium/bile acid cotransporter; test: Inhibition of NTCP (unknown origin) stably transfected in HEK293 cells; assay type: cell-based
[21] = test system: Hepatitis B virus; test: Antiviral activity against wild type HBV infected in HepG2.2.15 cells assessed as reduction in viral replication; assay type: functional, organism-based
[22] = test system: Hepatitis B virus; test: Antiviral activity against HBV infected in human HepG2-hNTCP cells assessed as reduction in HBV DNA replication by qRT-PCR analysis; assay type: functional, organism-based

Cc1cc(/N=N/c2ccc(S(=O)(=O)Nc3ccccn3)cc2)c(N)cc1O
EC50 [1]: 15.6 µM

CCOC(=O)C1=C(CN2CCOCC2)NC(c2nccs2)=NC1c1ccc(F)cc1Br (stereo not given)
EC50 [2]: 0.1 µM

CCOC(=O)c1ccnc(CNCC(=O)N(CC)CCN(C)C)c1
EC50 [1]: 0.034 µM

CCN(CCN(C)C)C(=O)CNCc1cc(C(=O)O)ccn1
IC50 [3]: 0.38 µM

CCc1cc2c(cc1-c1cccc(S(=O)(=O)F)c1)C(C)(C)c1[nH]c3cc(C#N)ccc3c1C2=O
IC50 [4]: 9.4 µM

O=C(Nc1ccc2c(=O)c3cccc(F)c3oc2c1)c1ccccc1
IC50 [5]: 1.89 µM

Cn1cnc(COC(=O)N[C@H]2CCc3c(C(=O)Nc4ccc(F)c(Cl)c4)ccc(F)c32)n1
EC50 [6]: 0.63 µM

Cc1cc(N)c(S(N)(=O)=O)cc1C(=O)Nc1cc(F)c(F)c(F)c1
EC50 [7]: 0.06 µM

CCOC(=O)C1=C(CN2CCN(C(C(=O)O)c3cccc([N+](=O)[O-])c3)CC2)NC(c2nccs2)=NC1c1ccc(F)cc1Br (stereo not given)
EC50 [2]: 0.024 µM

CCOC(=O)C1=C(CN2CCN(C(C(=O)O)c3ccoc3)CC2)NC(c2nccs2)=NC1c1ccc(F)cc1Br (stereo not given)
EC50 [2]: > 10 µM

CNC(=O)C1(NC(=O)C(=O)c2c(C)c(C(=O)Nc3ccc(F)c(F)c3)n3c2CCC3)CC(F)(F)C1
EC50 [6]: 0.08 µM

COC(=O)C1=C(C)NC(c2ncc(F)cc2F)=N[C@H]1c1ccc(F)cc1Cl
EC50 [8]: 0.023 µM

Cc1cn(-c2ccc3c(c2)CN(c2ncc(Cc4ccc(-n5cccn5)cc4)s2)CC3)c(C)n1
IC50 [9]: < 0.62 µM

N#Cc1ccc(Cn2nc(-c3ccc(C(F)(F)F)nc3F)c3ccccc3c2=O)cc1
IC50 [10]: 0.2 µM

Cc1ccc2[nH]c(CCNc3nccc(-c4ccccn4)n3)nc2c1C
EC50 [11]: > 10 µM

CCn1ccnc1-c1c(-c2ccccc2)ncn1CCCc1cccnc1
EC50 [11]: 10 µM

CCCCCCCc1cc(OC(=O)c2c(CCCCCCC)cc(O)cc2O[C@H]2O[C@@H](CO)[C@@H](O)[C@@H](O)[C@@H]2O)cc(O)c1C(=O)O
IC50 [12]: 2.2 µM

CCCCCCCCCc1cc(OC(=O)c2c(CCCCCCCCC)cc(O)cc2O[C@@H]2O[C@H](CO)[C@@H](O)[C@H](O)[C@H]2O)cc(O)c1C(=O)O
IC50 [12]: 1.1 µM

CC(C)OC(=O)[C@H](C)NP(=O)(OC[C@@]1(F)CO[C@@H](n2cnc3c(N)ncnc32)[C@@H]1CO)Oc1ccccc1 (stereo not given in full)
EC50 [13]: 0.08 µM

Nc1ncnc2c1ncn2[C@@H]1OC[C@](F)(CO)[C@H]1CO
EC50 [13]: > 10 µM

CCOCCOC(=O)C1=C(C)NC(c2ncc(F)cc2F)=NC1c1ccc(F)cc1C (stereo not given)
EC50 [14]: 6.24 µM

O=C(Nc1ccc(F)c(C(F)F)c1)C1c2ccccc2NCC1CN1CCC(F)(F)CC1 (stereo not given)
EC50 [7]: 0.1 µM

Nc1ncnc2c1ncn2[C@@H]1OC[C@](F)(COP(=O)(O)OP(=O)(O)OP(=O)(O)O)[C@H]1CO
IC50 [15]: 0.32 µM

CN1[C@H](C(=O)Nc2ccc(F)c(Cl)c2)C[C@H](c2ncc(-c3cn(C)cn3)s2)NS1(=O)=O
EC50 [16]: 0.022 µM | EC50 [17]: 0.027 µM | EC50 [18]: 0.041 µM

CCCCCCCc1cc(OC(=O)c2c(CCCCCCC)cc(O)cc2O[C@H]2O[C@@H](CO)[C@H](O)[C@@H](O)[C@@H]2O)cc(O)c1C(=O)O
IC50 [12]: 1.7 µM

O=C(NCc1ccc(-c2cccnc2)nc1)c1ccc2nccnc2c1
EC50 [11]: > 10 µM

O=C(Nc1ccc(F)c(Cl)c1)c1cc(S(=O)(=O)NC2CCCC2)cc2c1OCCO2
EC50 [7]: 0.5 µM

CC[C@H](C)C[C@H](C)C(=O)O[C@]1(C)C(=O)c2c(cc(O)c3c2C[C@@H](O)C[C@H]3C)[C@@](C)(O)C1=O
IC50 [12]: 0.61 µM

O=C(OCc1ccc(-c2cnc3ccccc3n2)cc1)c1cccs1
EC50 [11]: > 10 µM

NCCCC(=O)NCc1nc(-c2cccc(F)c2)c(-c2ccccn2)[nH]1
EC50 [11]: > 10 µM

C[C@]12CCCC[C@@H]1CC[C@@H]1[C@@H]2CC[C@]2(C)[C@@H]([C@H](O)CCc3ccc(F)cc3)CC[C@@H]12
IC50 [12]: 10.6 µM

CCOC(=O)c1cc(-c2cc(=O)oc3ccccc23)oc1C
IC50 [5]: 16.7 µM

CCOC(=O)c1cc(-c2cc(C(=O)OCC)c3ccccc3n2)nc2ccccc12
EC50 [11]: > 10 µM

O=C(O)C1CC(OCCOc2ccc(-c3cc(=O)c4cccc(Cl)c4o3)cc2)C1 (stereo not given)
EC50 [6]: 0.2 µM

COc1cc([C@H]2c3cc4c(cc3[C@H](n3cc(CO[C@H]5CC[C@]6(C)[C@H]7CC=C8[C@@H]9CC(C)(C)CC[C@]9(C(=O)O)CC[C@@]8(C)[C@]7(C)CC[C@H]6C5(C)C)nn3)[C@H]3COC(=O)[C@H]23)OCO4)cc(OC)c1OC
IC50 [19]: 0.07 µM

C/C(=N\c1cccc(F)c1)c1c(C)cc(=O)n(O)c1O
EC50 [11]: 2.1 µM

C=C(C)[C@@H]1CC[C@]2(C(=O)NCc3cn([C@H]4c5cc6c(cc5[C@H](c5cc(OC)c(OC)c(OC)c5)[C@H]5C(=O)OC[C@@H]54)OCO6)nn3)CC[C@@]3(C)[C@]4(C)CC[C@H]5C(C)(C)[C@@H](O)CC[C@]5(C)[C@H]4CC[C@]3(C)[C@@H]12
IC50 [19]: 0.79 µM

Cc1nc(-c2c(-c3ccccc3)ncn2Cc2cccc3[nH]ccc23)c[nH]1
EC50 [11]: 10 µM

CCC[C@@H]1NC(=O)[C@H](CC(C)C)N(C)C(=O)[C@H](CC(C)C)N(C)C(=O)CN(CCO)C(=O)[C@H](CC(C)C)N(C)C(=O)[C@@H](C)NC(=O)[C@H](CCC(N)=O)NC(=O)[C@H](CC(C)C)N(C)C(=O)[C@H](C(C)C)NC(=O)[C@H](CC(C)C)N(C)C(=O)CN(C)C1=O (HELM PEPTIDE1{[meL].[meL].[Nva].[Sar].[meL].V.[meL].Q.[dA].[meL].[O=C(CN(CCO)[*:1])[*:2]]}$PEPTIDE1,PEPTIDE1,1:R1-11:R2$$$V2.0)
IC50 [20]: 0.36 µM

COc1cc(C[C@@H]2CO[C@@H](c3ccc(O)c(OC)c3)[C@@H]2CO)ccc1O [(-)-Lariciresinol]
EC50 [21]: 42.6 µM

O=c1cc(-c2ccc(O)c(-c3c(O)cc(O)c4c(=O)cc(-c5ccc(O)cc5)oc34)c2)oc2cc(O)cc(O)c12 [AMENTOFLAVONE]
EC50 [14]: 48.6 mg/L

C=C(c1ccc(C(=O)O)cc1)c1cc2c(cc1C)C(C)(C)CCC2(C)C [BEXAROTENE]
IC50 [12]: 1.89 µM

O=c1cc(-c2ccccc2)oc2cc(O)cc(O)c12 [CHRYSIN]
EC50 [6]: 22.5 µM

COc1cc2c(O[C@@H]3OC[C@](O)(CO[C@@H]4OC[C@@H](O)[C@H](O)[C@H]4O)[C@H]3O[C@@H]3OC[C@H](O)[C@H](O)[C@H]3O)c3c(c(-c4ccc5c(c4)OCO5)c2cc1OC)C(=O)OC3 [CILIATOSIDE A]
EC50 [6]: 3.36 µM | EC50 [22]: 5.13 µM

C[C@]12CC[C@@H]3c4ccc(OC(=O)c5ccccc5)cc4CC[C@H]3[C@@H]1CC[C@@H]2O [ESTRADIOL BENZOATE]
IC50 [5]: 279 µM

O=c1ccc2cc3ccoc3cc2o1 [PSORALEN]
EC50 [21]: 63.7 µM

COc1ccc(-c2cc(=O)c3c(O)cc(O)c(-c4cc(-c5cc(=O)c6c(O)cc(OC)cc6o5)ccc4OC)c3o2)cc1 [SCIADOPITISIN]
EC50 [14]: 56.4 mg/L
